From US20260232827A1, “ANTIBODY-DRUG CONJUGATES TARGETING NAPI2B AND METHODS OF USE” (Zymeworks BC Inc., priority 2023, published 2026)

Assays:
Calu-3 (lung cancer) = assay: In vitro cytotoxicity of camptothecin analogues (CellTiter-Glo); assay type: cell-based; settings: Homo sapiens, Calu-3, 96 h, read-out: pIC50 Calu-3 (converted)
Experimental: (§1) Cytotoxicity of the camptothecin analogues was assessed in vitro as follows.
(§2) In vitro potency was assessed on multiple cancer cell lines: SK-BR-3 (breast cancer), SKOV-3 (ovarian cancer), Calu-3 (lung cancer), ZR-75-1 (breast cancer) and MDA-MB-468 (breast cancer). Serial dilutions of camptothecin analogues were prepared in RPMI 1640+10% FBS, and 20 μL of each dilution was added to 384-well plates. Cells cultured in log-phase growth were detached by brief incubation in 0.05% Trypsin and resuspended in respective culturing media at 20,000 cells/mL (with the exception of ZR-75 cells, which were resuspended at 10,000 cells/mL). 50 μL of cell suspension was then added to the plates containing test articles. Cells were incubated with test articles for 4 d at 37° C. (with the exception of ZR-75 cells, which were incubated for 5 d). Growth inhibition was assessed by CellTiter-Glo® (Promega Corporation, Madison, WI) and luminescence was measured on a plate reader. IC50 values were determined by GraphPad Prism (GraphPad Software, San Diego CA).

SKOV-3 (ovarian cancer) = assay: as above; assay type: cell-based; settings: Homo sapiens, SK-OV-3, 96 h, read-out: pIC50 SKOV-3 (converted)
Experimental: as §1, §2

SK-BR-3 (breast cancer) = assay: as above; assay type: cell-based; settings: Homo sapiens, SK-BR-3, 96 h, read-out: pIC50 SKBR-3 (converted)
Experimental: as §1, §2

ZR-75-1 (breast cancer) = assay: as above; assay type: cell-based; settings: Homo sapiens, ZR-75-1, 120 h, read-out: pIC50 ZR-75 (converted)
Experimental: as §1, §2

[1] = tested on: MDA-MB-468 (breast cancer); assay: as above; assay type: cell-based; settings: Homo sapiens, MDA-MB-468, 96 h, read-out: pIC50 MDA-MB-468 (converted)
Experimental: as §1, §2

[2] = tested on: Construct 2 (chimeric human NaPi2b, region 280-301); assay: Binding region mapping, flow cytometry on transfected HEK293-6e cells; settings: 24 hours at 4° C.
Text: (§3) NaPi2b constructs containing deletions in the main extracellular loop of human NaPi2b, as well as chimeric NaPi2b/NaPi2c constructs concerning this main loop, were generated.
(§4) As a complementary strategy, two additional constructs were designed in which the relevant region of the main loop was deleted such as to mimic NaPi2c/NaPi2a main extracellular loop (Constructs 6-7 in Table 52.1). Clones were generated at GenScript Biotech (Piscataway, NJ).
(§5) Constructs were expressed in HEK293-6e cells as follows. Cells were maintained under standard culture conditions (37° C./5% CO2) with shaking at 110 rpm for suspension and cultured in FreeStyle™ 293 Expression Medium (Thermo Fisher Scientific, Waltham, MA) supplemented with 1% fetal bovine serum (Thermo Fisher Scientific, Waltham, MA) and 1× Penicillin-Streptomycin (Thermo Fisher Scientific, Waltham, MA). Cells were transfected with clones expressing the constructs listed in Table 52.1, at 1 μg of DNA per 1 million cells, using 293Fectin™ Transfection Reagent (Thermo Fisher Scientific, Waltham, MA) and Opti-MEM™ I Reduced Serum Medium (Thermo Fisher Scientific, Waltham, MA), and incubated for 24 hours under standard culture conditions (37° C./5% CO2/110 rpm). Following transfection, cells were seeded at 50,000 cells/well in conical-bottom 96-well plates and treated with a serial dilution of test antibody for 24 hours at 4° C. to prevent internalization. Cells were treated with final concentrations of all humanized antibodies of 200, 20, or 2 nM. Cells were treated with final concentrations of the reference anti-NaPi2a rabbit antibody of 50, 5, or 0.5 nM. […] Following incubation and washing, fluorescence was detected by flow cytometry on a BD LSRFortessa™ Cell Analyzer (BD Biosciences, Franklin Lake, NJ) with 1,000 minimum events collected per well. […] Background-subtracted AF647 Mean Fluorescence Intensity (MFI) values were calculated by subtracting the average MFI of three technical replicates of unstained (no primary antibody) cells.

[3] = tested on: Construct 1 (chimeric human NaPi2b, region 239-259); assay: as above; settings: 24 hours at 4° C.
Text: as §3, §4, §5

CC[C@@]1(O)C(=O)OCc2c1cc1n(c2=O)Cc2c-1nc1cc(F)c(C)cc1c2CN1CCN(c2ccc(N)cc2)CC1 [Compound 108, (S)-11-((4-(4-aminophenyl)piperazin-1-yl)methyl)-4-ethyl-8-fluoro-4-hydroxy-9-methyl-1,12-dihydro-14H-pyrano[3′,4′:6,7]indolizino[1,2-b]quinoline-3,14(4H)-dione] showed an IC50 (Calu-3 (lung cancer)) of 40.7 nM, an IC50 (SKOV-3 (ovarian cancer)) of 55 nM and an IC50 (SK-BR-3 (breast cancer)) of 29.5 nM. The IC50 (ZR-75-1 (breast cancer)) was 18.6 nM and the IC50 [1] was 47.9 nM.
CC[C@@]1(O)C(=O)OCc2c1cc1n(c2=O)Cc2c-1nc1cc(F)c(C)cc1c2CN1CCO[C@@H](CO)C1 [Compound 113, (S)-4-ethyl-8-fluoro-4-hydroxy-11-(((R)-2-(hydroxymethyl)morpholino)methyl)-9-methyl-1,12-dihydro-14H-pyrano[3′,4′:6,7]indolizino[1,2-b]quinoline-3,14(4H)-dione] was tested, and the IC50 (Calu-3 (lung cancer)) was 3.02 nM, the IC50 (SKOV-3 (ovarian cancer)) was 4.27 nM and the IC50 (SK-BR-3 (breast cancer)) was 1.95 nM. For the same molecule, the IC50 (ZR-75-1 (breast cancer)) was 2.19 nM and the IC50 [1] was 3.39 nM.
CC[C@@]1(O)C(=O)OCc2c1cc1n(c2=O)Cc2c-1nc1cc(F)c(C)cc1c2CN1CCSCC1CO (stereo partly drawn) [Compound 114, (4S)-4-ethyl-8-fluoro-4-hydroxy-11-((3-(hydroxymethyl)thiomorpholino)methyl)-9-methyl-1,12-dihydro-14H-pyrano[3′,4′:6,7]indolizino[1,2-b]quinoline-3,14(4H)-dione] showed an IC50 (Calu-3 (lung cancer)) of 0.0933 nM, an IC50 (SKOV-3 (ovarian cancer)) of 0.178 nM and an IC50 (SK-BR-3 (breast cancer)) of 0.107 nM. For the same molecule, the IC50 [1] was 0.417 nM.
With CC[C@@]1(O)C(=O)OCc2c1cc1n(c2=O)Cc2c-1nc1cc(F)c(C)cc1c2CN1C2CCC1(CO)CC2 [Compound 121] the IC50 (Calu-3 (lung cancer)) was 0.145 nM, the IC50 (SKOV-3 (ovarian cancer)) was 0.195 nM and the IC50 (SK-BR-3 (breast cancer)) was 0.148 nM. The IC50 [1] was 0.269 nM.
In the case of CC[C@@]1(O)C(=O)OCc2c1cc1n(c2=O)Cc2c-1nc1cc(F)c(C)cc1c2CNS(C)(=O)=O [Compound 122, (S)-N-((4-ethyl-8-fluoro-4-hydroxy-9-methyl-3,14-dioxo-3,4,12,14-tetrahydro-1H-pyrano[3′,4′:6,7]indolizino[1,2-b]quinolin-11-yl)methyl)methanesulfonamide], the IC50 (Calu-3 (lung cancer)) is reported as 3.72 nM, the IC50 (SKOV-3 (ovarian cancer)) is reported as 9.12 nM and the IC50 (SK-BR-3 (breast cancer)) is reported as 1.12 nM. For the same molecule, the IC50 (ZR-75-1 (breast cancer)) was 1.29 nM and the IC50 [1] was 1.1 nM.
CC[C@@]1(O)C(=O)OCc2c1cc1n(c2=O)Cc2c-1nc1cc(F)c(C)cc1c2CNS(=O)(=O)c1ccccc1 [Compound 125, (S)-N-((4-ethyl-8-fluoro-4-hydroxy-9-methyl-3,14-dioxo-3,4,12,14-tetrahydro-1H-pyrano[3′,4′:6,7]indolizino[1,2-b]quinolin-11-yl)methyl)benzenesulfonamide] was tested, and the IC50 (Calu-3 (lung cancer)) was 2.82 nM, the IC50 (SKOV-3 (ovarian cancer)) was 7.08 nM and the IC50 (SK-BR-3 (breast cancer)) was 1.32 nM. It also gave an IC50 (ZR-75-1 (breast cancer)) of 1.32 nM and an IC50 [1] of 3.8 nM.
CC[C@@]1(O)C(=O)OCc2c1cc1n(c2=O)Cc2c-1nc1cc(F)c(C)cc1c2CNS(=O)(=O)c1ccc(N)cc1 [Compound 127, (S)-4-amino-N-((4-ethyl-8-fluoro-4-hydroxy-9-methyl-3,14-dioxo-3,4,12,14-tetrahydro-1H-pyrano[3′,4′:6,7]indolizino[1,2-b]quinolin-11-yl)methyl)benzenesulfonamide] was tested, and the IC50 (Calu-3 (lung cancer)) was 9.33 nM, the IC50 (SKOV-3 (ovarian cancer)) was 14.5 nM and the IC50 (SK-BR-3 (breast cancer)) was 3.31 nM. It also gave an IC50 (ZR-75-1 (breast cancer)) of 5.25 nM and an IC50 [1] of 3.8 nM.
Molecule CC[C@@]1(O)C(=O)OCc2c1cc1n(c2=O)Cc2c-1nc1cc(F)c(OC)cc1c2CNS(=O)(=O)c1ccc(N)cc1 [Compound 128, (S)-4-amino-N-((4-ethyl-8-fluoro-4-hydroxy-9-methoxy-3,14-dioxo-3,4,12,14-tetrahydro-1H-pyrano[3′,4′:6,7]indolizino[1,2-b]quinolin-11-yl)methyl)benzenesulfonamide] has an IC50 (SKOV-3 (ovarian cancer)) of 18.2 nM, an IC50 (SK-BR-3 (breast cancer)) of 5.25 nM and an IC50 (ZR-75-1 (breast cancer)) of 4.27 nM. It also gave an IC50 [1] of 8.32 nM.
Molecule CC[C@@]1(O)C(=O)OCc2c1cc1n(c2=O)Cc2c-1nc1cc(F)c(C)cc1c2CNS(N)(=O)=O [Compound 131, (S)-((4-ethyl-8-fluoro-4-hydroxy-9-methyl-3,14-dioxo-3,4,12,14-tetrahydro-1H-pyrano[3′,4′:6,7]indolizino[1,2-b]quinolin-11-yl)methyl)sulfamide] has an IC50 (Calu-3 (lung cancer)) of 9.12 nM, an IC50 (SK-BR-3 (breast cancer)) of 1.05 nM and an IC50 (ZR-75-1 (breast cancer)) of 0.955 nM. For the same molecule, the IC50 [1] was 9.12 nM.
CC[C@@]1(O)C(=O)OCc2c1cc1n(c2=O)Cc2c-1nc1cc(F)c(OC)cc1c2CNC(=O)NCc1ccc(N)cc1 [Compound 135, (S)-1-(4-aminobenzyl)-3-((4-ethyl-8-fluoro-4-hydroxy-9-methoxy-3,14-dioxo-3,4,12,14-tetrahydro-1/- pyrano[3′,4′:6,7]indolizino[1,2-b]quinolin-11-yl)methyl)urea] showed an IC50 (SK-BR-3 (breast cancer)) of 12.3 nM, an IC50 (ZR-75-1 (breast cancer)) of 13.2 nM and an IC50 [1] of 10.7 nM.
Work on CC[C@@]1(O)C(=O)OCc2c1cc1n(c2=O)Cc2c-1nc1cc(F)c(N)cc1c2CN=[N+]=[N-] [Compound 152, (S)-9-amino-11-(azidomethyl)-4-ethyl-8-fluoro-4-hydroxy-1,12-dihydro-14H-pyrano[3′,4′:6,7]indolizino[1,2-b]quinoline-3,14(4H)-dione] yielded an IC50 (Calu-3 (lung cancer)) of 1.48 nM, an IC50 (SKOV-3 (ovarian cancer)) of 2.88 nM and an IC50 (SK-BR-3 (breast cancer)) of 3.24 nM. It also gave an IC50 [1] of 5.01 nM.
With MX35 [MX35 (v18992)] the “Background-Subtracted AF647 Mean Fluorescence Intensity” value ([2]; antibody 20.0 nM) was 1,246, the “Background-Subtracted AF647 Mean Fluorescence Intensity” value ([2]; antibody 200.0 nM) was 1,356 and the “Background-Subtracted AF647 Mean Fluorescence Intensity” value ([3]; antibody 2.0 nM) was 1,893. The “Background-Subtracted AF647 Mean Fluorescence Intensity” value ([3]; antibody 20.0 nM) was 1,816 and the “Background-Subtracted AF647 Mean Fluorescence Intensity” value ([3]; antibody 200.0 nM) was 1,718.
